Test results: US9427458B2, “Methods for inhibiting cancer cell proliferation” (Consejo Nacional de Investigaciones Cientificas y Tecnicas, …, priority 2010, dated 2016)

What was measured:
Stat3 [1] = assay: Stat3 phosphorylation and nuclear translocation in C4HD cells; format: cell-based, mouse; conditions: Transfected C4HD cells versus wild-type C4HD cells also stimulated with MPA
Experimental: (§1) Lysates were prepared from cells subjected to the different treatments and proteins were subjected to SDS-PAGE as previously described (21). Membranes were immunoblotted with the antibodies detailed in each experiment. When phospho(p)-protein antibodies were used, filters were reprobed with total protein antibodies. Signal intensities of pErbB-2, pStat3, pSrc, pPR, pJak1, and pJak2 bands were analyzed by densitometry and normalized to total protein bands. Similarly, signal intensities of PR, cyclin D1, Stat3, and ErbB-2 bands were normalized to actin or β tubulin bands. […] The NEPER Nuclear and Cytoplasmic Extraction Reagents technique (Pierce Biotechnology) was performed as per manufacturer's instructions. Nuclear association between ErbB-2 and Stat3 was studied by performing coimmunoprecipitation experiments using 200 μg of nuclear protein lysates as described (22).
siRNAs targeting ErbB-2, Stat3, and Pr were synthesized by Dharmacon, Inc (Lafayatte, Colo.) (ErbB-2siRNA: 5′GAUGGUGCUUACUCAUUGA3′ (SEQ ID NO:8), designed to specifically knockdown mouse ErbB2 but not human ErbB-2; Stat3siRNA: 5′[…]3′ (SEQ ID NO:9) targets mouse Stat3; and 5′[…]3′ (SEQ ID NO:10) targets human Stat3; PRsiRNA: 5′[…]3′(SEQ ID NO:11)). […] Transfection of siRNAs duplexes was performed by using the DharmaFECT transfection reagent following the manufacturer's direction for 3 days. For reconstitution experiments cotransfection of 25 nM ErbB-2 siRNA with 2 μg expression vectors was performed using DharmaFECT Duo transfection reagent (Dharmacon).
Cells grown on glass coverslips were fixed and permeabilized in ice-cold methanol and were then blocked with PBS 1% BSA. ErbB-2 was localized using either a rabbit polyclonal (C-18) or a mouse monoclonal (F-11) ErbB-2 antibody (Santa Cruz Biotechnology) and Stat3 was detected using a mouse monoclonal antibody (124H6, Cell Signaling), followed by incubation with a goat anti-rabbit IgG-Alexa 488 (Molecular Probes, Eugene, Oreg.) secondary antibody for ErbB-2 (C-18) and with a rhodamine conjugated goat anti-mouse secondary antibody (Jackson ImmunoResearch Laboratories, West Grove, Pa.) for both ErbB2 (F-11) and Stat3. Negative controls were carried out using PBS instead of primary antibodies, or 5× competitive peptide (Santa Cruz Biotechnology) when ErbB-2 (C-18) was used. When cells were transfected with hErbB-2ΔNLS, green fluorescent protein from this expression vector was visualized by direct fluorescence imaging. […] FIGS. 2A, 3B and C, illustrate a few cells representative of the ones examined. Cells were analyzed using a Nikon Eclipse E800 confocal laser microscopy system (22).

Stat3 [2] = assay: m67 Stat3 binding site luciferase reporter in C4HD cells; format: cell-based, mouse; conditions: cotransfection
Description: (§2) The luciferase reporter plasmid downstream the cyclin D1 human promoter region (−1745 cyclin D1-luc), and constructs truncated at positions −963, −261, −141, were kindly provided by Dr. R. Pestell (Northwestern University Medical School, Chicago, Ill.). These constructs were generated by truncation of the 1745-bp length promoter in order to sequentially exclude 5′ regions of the promoter. The −963 cyclin D1-luc construct excludes one GAS site (−984), the −261 cyclin D1-luc excludes three GAS sites (−984, −568 and −475) and the −141 cyclin D1-luc excludes four GAS sites (−984, −568, −475 and −239). The empty vector pA3 Luc was also provided by Dr. R. Pestell. The luciferase reporter plasmid containing four copies of the m67 high-affinity binding site (p4×m67-tk-luc) and the pTATA-tk-Luc reporter lacking the m67 insertion were a gift from Dr J. Darnell (The Rockefeller University, New York, N.Y.). The Renilla luciferase expression plasmid RLCMV was obtained from Promega (Madison, Wis.). […] Triplicate samples were analyzed for each datum point. Differences between experimental groups were analyzed by ANOVA followed by Tukey test between groups.

Stat3 [3] = assay: m67 Stat3 binding site luciferase reporter in T47D cells; format: cell-based, human; conditions: cotransfection
Description: as §2

cyclin D1 promoter [4] = assay: Human cyclin D1 promoter luciferase reporter in C4HD cells; format: cell-based, mouse; conditions: for MPA-induced cyclin D1 promoter activation: pretreatment or cotransfection, MPA 24 h
Description: The luciferase reporter plasmid downstream the cyclin D1 human promoter region (−1745 cyclin D1-luc), and constructs truncated at positions −963, −261, −141, were kindly provided by Dr. R. Pestell (Northwestern University Medical School, Chicago, Ill.). These constructs were generated by truncation of the 1745-bp length promoter in order to sequentially exclude 5′ regions of the promoter. The −963 cyclin D1-luc construct excludes one GAS site (−984), the −261 cyclin D1-luc excludes three GAS sites (−984, −568 and −475) and the −141 cyclin D1-luc excludes four GAS sites (−984, −568, −475 and −239). The empty vector pA3 Luc was also provided by Dr. R. Pestell. The luciferase reporter plasmid containing four copies of the m67 high-affinity binding site (p4×m67-tk-luc) and the pTATA-tk-Luc reporter lacking the m67 insertion were a gift from Dr J. Darnell (The Rockefeller University, New York, N.Y.). The Renilla luciferase expression plasmid RLCMV was obtained from Promega (Madison, Wis.). Dominant negative Stat3 expression vector, Stat3Y705-F, which carries a tyrosine to phenylalanine substitution at codon 705 that reduces phosphorylation on tyrosine of the wild-type Stat3 protein, therefore inhibiting both dimerization and DNA binding of Stat3 (6,7,16) was kindly provided by Dr J. Darnell (New York, USA). The empty pcDNA3.1 vector was also a gift of Dr J. Darnell. Human wild-type ErbB-2 expression vector (hErbB-2WT) as well as the empty pMe18SM vector were a gift from by Dr. T. Yamamoto (University of Tokyo, Japan) (1). The GFP-tagged human ErbB-2 mutant which lacks the putative nuclear localization signal sequence (aa 676-KRRQQKIRKYTMRR-689) (SEQ ID NO:3), resulting in the sequence of KLM at the deletion junction (hErbB-2ΔNLS), was generously provided by Dr. M. C. Hung (The University of Texas M.D. Anderson Cancer Center, Houston, Tex.) (Giri et al., 2005). The empty pEGFP-N1 vector was obtained from BD Biosciences Clontech (Palo Alto, Calif.). The plasmid encoding the human wild-type hPR-B was kindly provided by Dr. K. Horwitz. In experiments assessing MPA capacity to induce the transcriptional activation of Stat3, C4HD and T47D cells were transiently transfected for 48 h with 1 μg of −1745 cyclin D1-luc reporter plasmid or the truncated −963, −261 and −141 constructs, or with 1 μg p4×m67-tk-luc and 10 ng of RL-CMV used to correct variations in transfection efficiency. As control, cells were transfected with 1 μg of either the pA3 Luc or pTATA-tk-Luc reporters. Cells were cotransfected with 2 μg of Stat3Y705-F when indicated. Total amount of transfected DNA was standardized by adding the empty pcDNA3.1 vector. […] Triplicate samples were analyzed for each datum point. Differences between experimental groups were analyzed by ANOVA followed by Tukey test between groups.

cyclin D1 = assay: Cyclin D1 protein levels by Western blot in C4HD cells; format: cell-based, mouse; conditions: C4HD cells preincubated or transfected, then MPA for 48 h
Experimental: Primary cultures of epithelial cells from C4HD tumors were performed as described (2). T47D cells were obtained from American Type Culture Collection and T47D-Y cells were a generous gift from Dr. K. Horwitz (Denver, Colo.). To evaluate the effects of the pharmacological inhibitors on MPA-induced proteins phosphorylation or cyclin D1 expression, cells were preincubated for 90 min with RU486, PP2, Tyrphostin AG825 or Jak inhibitor I before addition of MPA. Cell proliferation was evaluated by [3H]-thymidine incorporation assay and cell cycle distribution was analyzed by flow cytometry, as described (22).
as §1, with “Nuclear association between ErbB-2 and Stat3 was studied by performing coimmunoprecipitation experiments using 200 μg of nuclear protein lysates as described (22).” left out

cyclin D1 promoter [5] = assay: Human cyclin D1 promoter luciferase reporter in T47D cells; format: cell-based; conditions: pretreatment or cotransfection, MPA 24 h
Description: as §2

Question: “hErbB-2WT: Human wild-type ErbB-2 expression vector” was tested. Which “Stat3 Tyr705 phosphorylation upon MPA stimulation” value (Stat3 [1]) did it give?
Answer: higher levels

Question: And the “MPA-induced Stat3 transcriptional activation (m67 reporter)” value (Stat3 [2])?
Answer: significantly enhanced

Question: And the “MPA-induced Stat3 transcriptional activation (m67 reporter)” value (Stat3 [3])?
Answer: significantly enhanced

Question: What about the “basal levels of Stat3 transcriptional activity” value (cyclin D1 promoter [4]; absence of MPA) of the same substance?
Answer: did not modulate

Question: And the “MPA-induced cyclin D1 promoter activation” value (cyclin D1 promoter [4])?
Answer: significantly enhanced

Question: Which “MPA-induced cyclin D1 protein levels” value (cyclin D1) does the source give for “5′GGUCAAAUUUCCUGAGUUGUU3′ (other strand missing, further chemistry not given here) [Stat3 siRNAs, siRNA that targets mouse Stat3]” here?
Answer: abrogated

Question: How did the “MPA-induced cyclin D1 promoter activation” value (cyclin D1 promoter [5]) turn out when “Stat3Y705-F: Dominant negative Stat3 expression vector, tyrosine to phenylalanine substitution at codon 705” was run?
Answer: absolutely inhibited

Question: And the “MPA-induced cyclin D1 promoter activation” value (cyclin D1 promoter [4])?
Answer: absolutely inhibited
